Measured values from patent US20050100903A1, “Screening method” (priority 2001, published 2005).

Assays:
[1] = tested on: CEACAM-1 expression in HT29 cells; assay: Western Blot of CEACAM expression in HT29 colon carcinoma cells; assay type: cell-based, human; details: HT29, 10 ng/ml, 6 hours
Procedure: HT29 colon carcinoma cells were incubated for 6 hours with TNF-α (10 ng/ml). The cells were examined microscopically for vitality, then lysed, their total protein isolated and separated electrophoretically. 8 μg protein was separated per lane. An anti-CEA antibody and an anti-mouse-HRP-coupled secondary antibody (Dianova, Hamburg, Germany) were used for detection. A cross-reacting anti-CEA antibody was chosen to investigate the selectivity of candidate substances for the expression of individual antigens. The selectivity of the substance effects is important since CEACAM-1 and CEACAM-7/CEA and CEACAM-6 can have antagonistic effects on apoptosis.
The proportionality of expression of individual CEACAMs can be quantified in Western Blot after densitometric evaluation (e.g., public domain NIH software IMAGE 1.6.1). The antigens are identified in the Western Blot through assignment to relative molar mass. The molecular size of the individual CEACAMs is described in the literature. The Western Blot was normalized with β-actin (Sigma-Aldrich, Taufkirchen, Germany). This blot (FIG. 6) was subsequently evaluated densitometrically using the NIH Image Software 1.6.1.
200 nM wortmannin (Calbiochem-Novabiochem, Nottingham, UK) was incubated with 1×10^6 cells/well (6-well plate) for 3, 8 or 24 hours. […]

HT29 cells = assay: Apoptosis in HT29 cells with or without γ-interferon stimulation, with antibody cross-linking; assay type: cell-based, human; details: addition over a short period (500 U/ml, 6 hours)
Procedure: HT29 cells were treated for 6 hours with 500 U/ml γ-interferon. The procedure was also run without interferon stimulation. After change of medium, the cells were treated with primary antibodies as in Example 4. These were: mAb 4D1C2 (anti-CEACAM-1 at 4 μg/ml) or irrelevant mAb 7D11 (anti-β-catenin at 1 μg/ml). A test run without antibody was used as a second negative control.
After medium change, secondary antibody (anti-mouse at 15 μg/ml) was added. After a total experiment duration of 80-96 hours, the level of apoptosis was determined using standard propidium iodide staining or the apoptosis ELISA of ROCHE Molecule Systems, strictly in accordance with the instructions of the manufacturer. All experiments were performed in triplicate and repeated 3× independently. The Wilcoxon signed ranks test was used to assess the significance of the data.

In the case of TNF-α, the “Influence on other proteins of the CEACAM family” value [1] is reported as “without influencing” and the “Upregulation of CEACAM-1 compared to the untreated sample” value ([1]; densitometry of Western Blot normalized with β-actin) is reported as “approximately 2 fold”.

“gamma-interferon: gamma-interferon, stimulates HT29 cells to produce CEACAM-1” was tested, and the “CEACAM-1 production in HT29 cells” value (HT29 cells) was “stimulates”.
